Results as given in patent US6310051A, “Use of chelating agents in the treatment of atherosclerotic conditions” (Nycomed Imaging AS, priority 1997, dated 2001).

How the values were obtained:
[1] = tested on: human LDL; test: Copper-catalyzed oxidation of human LDL in vitro, increase in absorbance at 234 nm (diene-products); assay type: biochemical; settings: 5 μM CuCl2, 30° C., PBS; for inhibition of LDL oxidation, concentration dependence: absorbance at 234 nm over 225 minutes; for inhibition of LDL oxidation at 5 μM: 5 μM compound; for inhibition of LDL oxidation at 5 μM / inhibition of LDL oxidation at 10 μM: 234 nm; for inhibition of LDL oxidation at 10 μM: 10 μM compound
Protocol: Copper-catalyzed LDL-oxidation was monitored by following the increase in absorbance at wavelength 234 nm over time (representing increase in diene-products).
Human LDL (1.025<d<1.050 g/ml) was freshly isolated (from sera of normolipidemic donors who had fasted overnight) by sequential ultracentrifugation, in the presence of EDTA (1.4 mg/ml) to inihibit lipid peroxidation. LDL was finally dialyzed under nitrogen against 10 mM phosphate buffer with 160 mM NaCl, pH 7.4 (PBS), for 24 h at 4° C.
Assays were performed at 30° C. in PBS by mixing 200 μl of the LDL-containing dialysate to PBS to a final volume of 2000 μl. The LDL-oxidation was started by adding 5 μM CuCl2 and the changes in absorbance at wavelength 234 nm was followed over 225 minutes.

[2] = Plasma metallo-PLED by HPLC after oral (intragastric) administration to rats; assay type: in vivo; settings: rat, 100 μmol/kg MnPLED into the stomach, 5 minutes after administration
Protocol: In order to get a rough estimate of the bioavailability of MnPLED after oral administration, rats were instilled with MnPLED into the stomach and the plasma concentrations of metallo-PLED was determined at various times after administration.
100 μmol/kg MnPLED was instilled into the stomach. Blood (ca 4.5 ml) was withdrawn by cardiac puncture (under CO2 -anaesthesia) and collected in tubes containing heparin (trace metal analysis tubes), 5, 30, 60, 120 minutes and 24 hours after oral administration (2 rats for each time point). Plasma was prepared by centrifugation and ultrafiltration and metallo-PLED was determined by HPLC as described by Toft et al. 1997 (Acta Radiologica 38: 677-689).

| Substance | inhibition of LDL oxidation, concentration dependence [1] | inhibition of LDL oxidation at 5 μM [1] | inhibition of LDL oxidation at 10 μM [1] | presence of MnPLED in plasma ([2]; one animal) | transmetallation of MnPLED into ZnPLED ([2]; plasma) |
| --- | --- | --- | --- | --- | --- |
| dihydrogen [N,N'-ethylenebis [N-[[3-hydroxy-5-(hydroxymethyl)-2-methyl-4-pyridyl]methyl] glycinato] (4-)] manganate(2-) [MnPLED] | inhibited LDL oxidation in a concentration-dependent manner | more than 50% | almost complete inhibition | may indicate the presence of small amounts of MnPLED in plasma | most of the MnPLED has already been transmetallated into ZnPLED |
| MnDPDP | inhibited LDL oxidation in a concentration-dependent manner | more than 50% | almost complete inhibition |  |  |
